The assay has as its system Caco-2 cells. The assay can be described thus: apoA-I mediated 3H-cholesterol efflux from Caco-2 cells. It counts as cell-based, human. The settings on record: 24 h, 10 μg/ml apoA-I, mean and SEM of quadruplicate. Here is the method:
To assess the relevant biological activity of the LXR agonists, certain compounds were tested for their ability to increase cholesterol efflux from cultured human cells, as described by Sparrow et al., JBC volume 277, pages 10021–10027, Mar. 22, 2002. Caco-2 cells, which are of human origin, were obtained from ATCC and grown in Opti-MEM (Gibco #51985-034) containing 10% FCS, non-essential amino acids (Gibco #11140-050), and vitamins (Gibco # 11120-052). Caco-2 cells were plated at 100,000 cells/well in 48-well plates. After four days the cells had reached confluence, and were then labeled with ^3H-cholesterol by incubation for 24 hours in fresh growth media containing ^3H-cholesterol (10 μCi/ml). Following labeling with ^3H-cholesterol, cells were washed and incubated an additional 24 hours in serum-free media containing 1 mg/ml BSA, to allow for equilibration of ^3H-cholesterol with intracellular cholesterol. Cholesterol efflux was initiated by adding 10 μg/ml apoA-I, with or without compound, in serum-free medium. Compounds were added to cell culture medium from DMSO solutions, and control cells received an equivalent amount of DMSO, never exceeding 0.1%. After 24 hours, media were harvested and cells dissolved in 0.1 M NaOH. Media were briefly centrifuged to remove non-adherent cells, and then aliquots of both the supernatants and the dissolved cells were subjected to liquid scintillation spectrometry to determine radioactivity. Cholesterol efflux is expressed as a percentage, calculated as (^3H-cholesterol in medium/(^3H-cholesterol in medium+^3H-cholesterol in cells))×100.
On the technique in general: Caco-2 cells form a polarised layer with tight junctions and transporters.

Structures are written as SMILES.

As for `CCCc1c(OCCCN2C(=O)CSC2=O)ccc2c(C(F)(F)F)noc12` [Example 16, 3-(3-{[7-propyl-3-(trifluoromethyl)-1,2-benzisoxazol-6-yl]oxy}propyl)thiazolidine-2,4-dione], the “% cholesterol efflux” value (compound concentration 1 nM) amounted to 3.2 ± 0.3%; the “% cholesterol efflux” value (compound concentration 10 nM) is given as 4.0 ± 0.2%; the “% cholesterol efflux” value (compound concentration 100 nM) stood at 8.8 ± 0.7%; the “% cholesterol efflux” value (compound concentration 1000 nM) worked out at 10.3 ± 0.3%; the “% cholesterol efflux” value (compound concentration 5000 nM) was found to be 6.6 ± 0.4%.
As for `CCCc1c(OCCCN2C(=O)NC(C)(c3ccccc3)C2=O)ccc2c(C(F)(F)F)noc12` (racemic) [Example 25, rac-5-methyl-5-phenyl-3-(3-{[7-propyl-3-(trifluoromethyl)-1,2-benzisoxazol-6-yl]oxy}propyl)imidazolidine-2,4-dione], the “% cholesterol efflux” value (compound concentration 1 nM) came out at 3.4 ± 0.3%; the “% cholesterol efflux” value (compound concentration 10 nM) stood at 3.5 ± 0.09%; the “% cholesterol efflux” value (compound concentration 100 nM) is given as 4.5 ± 0.09%; the “% cholesterol efflux” value (compound concentration 1000 nM) worked out at 4.6 ± 0.09%; the “% cholesterol efflux” value (compound concentration 5000 nM) was determined as 5.2 ± 0.2%.

(Values after patent US7125865B2, “Therapeutic compounds for treating dyslipidemic conditions” (Merck & Co., Inc., priority 2002, dated 2006).)
